Here are results for one molecule from paper PMC5537066, “Dimerization facilitates the conformational transitions for bacterial phosphotransferase enzyme I autophosphorylation in an allosteric manner” (FEBS Open Bio, 2017).

What all share (experiment): isothermal titration calorimetry
Common to all, as to assay type: binding
What all share (conditions): read-out: K D (μS)
For orientation: Isothermal titration calorimetry measures the heat released or taken up as one component is titrated into another.

One assay deals with T1, EI (EIA, EIA(G356S)) (Escherichia coli, UniProt P08839, G356S/H189A).
T1 construct: gene ptsI; full length 1-575; pET11 or pET15b with N-terminal His6 tag; E. coli BL21star(DE3); dimer with PEP
From the text: isothermal titration calorimetry on EI (EIA, EIA(G356S))

For a further assay, the target named is T2, EIC (EIC(G356S)) (Escherichia coli, UniProt P08839, G356S).
T2 construct: gene ptsI; pET11 or pET15b with N-terminal His6 tag; E. coli BL21star(DE3)

The target in another assay is T3, EIA^ΔEINα (G356S) (Escherichia coli, UniProt P08839, DEL22-145/G356S/H189A).
T3 construct: gene ptsI; EI(1-21, 146-575), EINalpha subdomain deleted; pET11 or pET15b with N-terminal His6 tag; E. coli BL21star(DE3)
From the text:
isothermal titration calorimetry on EIA^ΔEINα (G356S)

Regarding `C=C(OP(=O)(O)O)C(=O)O` [PEP], the Kd came to 14 ± 0.9 µM at EI (EIA, EIA(G356S)); 310 ± 100 µM on EIC (EIC(G356S)); 1.3 ± 0.1 µM at EIA^ΔEINα (G356S).
